Source: PubChem BioAssay (NCI)
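Cultured in 96-well plates, cells were exposed to test compound for 48 hours across five concentrations. Definition used: TGI = concentration required for complete inhibition of growth.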

The compounds below were run on HCT-116 colon (assay: growth of human tumour cells (NCI), 48 h).
Work on CC(C)(C)OC(=O)N1C2CCCC23O[C@@H]1c1cc2c(cc1C3=O)OCO2 (stereo partly drawn) yielded a TGI greater than 100 µM. Compound COC(=O)c1c[nH]cc1CCCCc1c[nH]cc1C(=O)OC has a TGI greater than 100 µM. CCOC(=O)CCC(NC(=O)c1ccc(NCc2ccc3nc(-c4ccccc4)c(Cl)nc3c2)cc1)C(=O)OCC (stereo not drawn) was tested, and the TGI was greater than 100 µM.

The compounds below were run on SN12C renal (assay: growth of human tumour cells (NCI), 48 h).
C[Si](C)(C)CN1C(=O)c2ccccc2C1(O)c1ccccc1 (stereo not drawn) was tested, and the TGI was greater than 100 µM. CC(C)(C)OC(=O)N1C2CCCC23O[C@@H]1c1cc2c(cc1C3=O)OCO2 (stereo partly drawn) showed a TGI greater than 100 µM. COC(=O)c1c[nH]cc1CCCCc1c[nH]cc1C(=O)OC was tested, and the TGI was greater than 100 µM. CCOC(=O)CCC(NC(=O)c1ccc(NCc2ccc3nc(-c4ccccc4)c(Cl)nc3c2)cc1)C(=O)OCC (stereo not drawn) gave a TGI greater than 100 µM.

Each compound was assayed on KM12 colon (assay: growth of human tumour cells (NCI), 48 h).
Compound C[Si](C)(C)CN1C(=O)c2ccccc2C1(O)c1ccccc1 (stereo not drawn) has a TGI greater than 100 µM. With CC(C)(C)OC(=O)N1C2CCCC23O[C@@H]1c1cc2c(cc1C3=O)OCO2 (stereo partly drawn) the TGI was greater than 100 µM. For COC(=O)c1c[nH]cc1CCCCc1c[nH]cc1C(=O)OC, the TGI was greater than 100 µM. CCOC(=O)CCC(NC(=O)c1ccc(NCc2ccc3nc(-c4ccccc4)c(Cl)nc3c2)cc1)C(=O)OCC (stereo not drawn) showed a TGI greater than 100 µM.

Each compound was assayed on A498 renal (assay: growth of human tumour cells (NCI), 48 h).
C[Si](C)(C)CN1C(=O)c2ccccc2C1(O)c1ccccc1 (stereo not drawn) showed a TGI greater than 100 µM. In the case of COC(=O)c1c[nH]cc1CCCCc1c[nH]cc1C(=O)OC, the TGI is reported as greater than 100 µM. CCOC(=O)CCC(NC(=O)c1ccc(NCc2ccc3nc(-c4ccccc4)c(Cl)nc3c2)cc1)C(=O)OCC (stereo not drawn) gave a TGI of 78.6 µM.

These compounds were tested on CCRF-CEM leukemia (assay: growth of human tumour cells (NCI), 48 h).
In the case of C[Si](C)(C)CN1C(=O)c2ccccc2C1(O)c1ccccc1 (stereo not drawn), the TGI is reported as greater than 100 µM. CC(C)(C)OC(=O)N1C2CCCC23O[C@@H]1c1cc2c(cc1C3=O)OCO2 (stereo partly drawn) was tested, and the TGI was greater than 100 µM. COC(=O)c1c[nH]cc1CCCCc1c[nH]cc1C(=O)OC gave a TGI greater than 100 µM. In the case of CCOC(=O)CCC(NC(=O)c1ccc(NCc2ccc3nc(-c4ccccc4)c(Cl)nc3c2)cc1)C(=O)OCC (stereo not drawn), the TGI is reported as greater than 100 µM.

These compounds were tested on SK-MEL-2 melanoma (assay: growth of human tumour cells (NCI), 48 h).
With C[Si](C)(C)CN1C(=O)c2ccccc2C1(O)c1ccccc1 (stereo not drawn) the TGI was greater than 100 µM. For CC(C)(C)OC(=O)N1C2CCCC23O[C@@H]1c1cc2c(cc1C3=O)OCO2 (stereo partly drawn), the TGI was greater than 100 µM. COC(=O)c1c[nH]cc1CCCCc1c[nH]cc1C(=O)OC gave a TGI greater than 100 µM. With CCOC(=O)CCC(NC(=O)c1ccc(NCc2ccc3nc(-c4ccccc4)c(Cl)nc3c2)cc1)C(=O)OCC (stereo not drawn) the TGI was 25.9 µM.

These compounds were tested on NCI-H23 lung (assay: growth of human tumour cells (NCI), 48 h).
For C[Si](C)(C)CN1C(=O)c2ccccc2C1(O)c1ccccc1 (stereo not drawn), the TGI was greater than 100 µM. CC(C)(C)OC(=O)N1C2CCCC23O[C@@H]1c1cc2c(cc1C3=O)OCO2 (stereo partly drawn) gave a TGI greater than 100 µM. Compound COC(=O)c1c[nH]cc1CCCCc1c[nH]cc1C(=O)OC has a TGI greater than 100 µM. Work on CCOC(=O)CCC(NC(=O)c1ccc(NCc2ccc3nc(-c4ccccc4)c(Cl)nc3c2)cc1)C(=O)OCC (stereo not drawn) yielded a TGI greater than 100 µM.

These compounds were tested on RXF-631 renal (assay: growth of human tumour cells (NCI), 48 h).
C[Si](C)(C)CN1C(=O)c2ccccc2C1(O)c1ccccc1 (stereo not drawn) was tested, and the TGI was greater than 100 µM. CC(C)(C)OC(=O)N1C2CCCC23O[C@@H]1c1cc2c(cc1C3=O)OCO2 (stereo partly drawn) gave a TGI greater than 100 µM. Work on COC(=O)c1c[nH]cc1CCCCc1c[nH]cc1C(=O)OC yielded a TGI greater than 100 µM. Work on CCOC(=O)CCC(NC(=O)c1ccc(NCc2ccc3nc(-c4ccccc4)c(Cl)nc3c2)cc1)C(=O)OCC (stereo not drawn) yielded a TGI of 70.3 µM.

These compounds were tested on A549 NSCLC (assay: growth of human tumour cells (NCI), 48 h).
C[Si](C)(C)CN1C(=O)c2ccccc2C1(O)c1ccccc1 (stereo not drawn) was tested, and the TGI was greater than 100 µM. Compound CC(C)(C)OC(=O)N1C2CCCC23O[C@@H]1c1cc2c(cc1C3=O)OCO2 (stereo partly drawn) has a TGI greater than 100 µM. Compound COC(=O)c1c[nH]cc1CCCCc1c[nH]cc1C(=O)OC has a TGI greater than 100 µM. With CCOC(=O)CCC(NC(=O)c1ccc(NCc2ccc3nc(-c4ccccc4)c(Cl)nc3c2)cc1)C(=O)OCC (stereo not drawn) the TGI was greater than 100 µM.

The compounds below were run on SNB-78 CNS (assay: growth of human tumour cells (NCI), 48 h).
C[Si](C)(C)CN1C(=O)c2ccccc2C1(O)c1ccccc1 (stereo not drawn) showed a TGI greater than 100 µM. CC(C)(C)OC(=O)N1C2CCCC23O[C@@H]1c1cc2c(cc1C3=O)OCO2 (stereo partly drawn) showed a TGI greater than 100 µM. COC(=O)c1c[nH]cc1CCCCc1c[nH]cc1C(=O)OC was tested, and the TGI was greater than 100 µM. Work on CCOC(=O)CCC(NC(=O)c1ccc(NCc2ccc3nc(-c4ccccc4)c(Cl)nc3c2)cc1)C(=O)OCC (stereo not drawn) yielded a TGI greater than 100 µM.

What follows are compounds tested on EKVX NSCLC (assay: growth of human tumour cells (NCI), 48 h).
With C[Si](C)(C)CN1C(=O)c2ccccc2C1(O)c1ccccc1 (stereo not drawn) the TGI was greater than 100 µM. CC(C)(C)OC(=O)N1C2CCCC23O[C@@H]1c1cc2c(cc1C3=O)OCO2 (stereo partly drawn) was tested, and the TGI was greater than 100 µM. COC(=O)c1c[nH]cc1CCCCc1c[nH]cc1C(=O)OC was tested, and the TGI was greater than 100 µM. Compound CCOC(=O)CCC(NC(=O)c1ccc(NCc2ccc3nc(-c4ccccc4)c(Cl)nc3c2)cc1)C(=O)OCC (stereo not drawn) has a TGI greater than 100 µM.

What follows are compounds tested on OVCAR-4 ovarian (assay: growth of human tumour cells (NCI), 48 h).
With C[Si](C)(C)CN1C(=O)c2ccccc2C1(O)c1ccccc1 (stereo not drawn) the TGI was greater than 100 µM. Compound CC(C)(C)OC(=O)N1C2CCCC23O[C@@H]1c1cc2c(cc1C3=O)OCO2 (stereo partly drawn) has a TGI greater than 100 µM. COC(=O)c1c[nH]cc1CCCCc1c[nH]cc1C(=O)OC was tested, and the TGI was greater than 100 µM. In the case of CCOC(=O)CCC(NC(=O)c1ccc(NCc2ccc3nc(-c4ccccc4)c(Cl)nc3c2)cc1)C(=O)OCC (stereo not drawn), the TGI is reported as 90.6 µM.

The compounds below were run on KM20L2 colon (assay: growth of human tumour cells (NCI), 48 h).
Compound C[Si](C)(C)CN1C(=O)c2ccccc2C1(O)c1ccccc1 (stereo not drawn) has a TGI greater than 100 µM. COC(=O)c1c[nH]cc1CCCCc1c[nH]cc1C(=O)OC was tested, and the TGI was greater than 100 µM. CCOC(=O)CCC(NC(=O)c1ccc(NCc2ccc3nc(-c4ccccc4)c(Cl)nc3c2)cc1)C(=O)OCC (stereo not drawn) showed a TGI greater than 100 µM.

These compounds were tested on NCI-H522 lung (assay: growth of human tumour cells (NCI), 48 h).
C[Si](C)(C)CN1C(=O)c2ccccc2C1(O)c1ccccc1 (stereo not drawn) showed a TGI greater than 100 µM. Compound CC(C)(C)OC(=O)N1C2CCCC23O[C@@H]1c1cc2c(cc1C3=O)OCO2 (stereo partly drawn) has a TGI of 31.3 µM. For COC(=O)c1c[nH]cc1CCCCc1c[nH]cc1C(=O)OC, the TGI was greater than 100 µM. CCOC(=O)CCC(NC(=O)c1ccc(NCc2ccc3nc(-c4ccccc4)c(Cl)nc3c2)cc1)C(=O)OCC (stereo not drawn) showed a TGI of 57.8 µM.
